{
  "source": "patent US8906945B2",
  "about": "(priority 2009, dated 2014)",
  "key": {"[1]": {"test_system": "HeLa cell internalization of P. aeruginosa", "test": "Gentamicin protection assay of bacterial internalization", "conditions": "50 μM, ExoT-producing P. aeruginosa, MOI 10"}, "[2]": {"test_system": "T3SS-mediated secretion of YopE-βLA fusion protein from Y. pestis strain JG153/pMM85", "test": "microbe, parasite or virus in culture", "assay_type": "cell-based", "conditions": "Yersinia pestis"}, "P. aeruginosa": {"test_system": "P. aeruginosa", "test": "Minimum inhibitory concentration (broth microdilution)", "conditions": "Pseudomonas aeruginosa, read-out: MIC vs. P. aeruginosa"}, "[3]": {"test_system": "P. aeruginosa T3SS (exoT-luxCDABE reporter strain MDM852)", "assay_type": "cell-based, Pseudomonas aeruginosa"}, "[4]": {"test_system": "T3SS-mediated secretion of ExoS′-βLA fusion protein from P. aeruginosa strain MDM973", "test": "microbe, parasite or virus in culture", "assay_type": "cell-based, Pseudomonas aeruginosa"}, "[5]": {"test_system": "Chlamydia trachomatis L2 in Hep-2 cells", "test": "Chlamydia trachomatis growth inhibition assay", "assay_type": "cell-based", "description": "Inhibition of the growth of Chlamydia trachomatis L2 strain by compounds was measured in 24-well plates essentially according to the method of Wolf et al. (59). Confluent monolayer Hep-2 cells were infected with L2 at an MOI of 0.5 and treated with compounds at indicated concentrations for 48 h. Then cultures were collected and sonicated. Entire lysates were used for counting inclusion forming units (IFUs) as a measurement of production of Chlamydia progeny elementary bodies (EBs) by re-plating onto fresh HeLa monolayers. An uninhibited control (DMSO only) and a complete inhibition control (chloramphenicol, 200 μg/ml) were included. Experiments were done in triplicate."}, "[6]": {"conditions": "50 μM added after 2.5 hours of T3SS induction"}},
  "note": "pIC50: −log10 of the molar value. Entries after “also recorded” stand apart in the source; their conditions may differ. Read-outs that look alike come from different tables or passages of the source.",
  "data": [
    {"compound": "CC(Oc1ccc(Cl)cc1Cl)C(=O)NCc1ccc2c(c1)OCO2", "note": "(racemic) [Compound 1, N-(benzo[d][1,3]dioxol-5-ylmethyl)-2-(2,4-dichlorophenoxy)propanamide]", "values": [
      {"measurement": "stimulation of internalization of bacterial cells by HeLa cells", "setting": "[1]", "result": "over 11 fold"},
      {"measurement": "pIC50", "setting": "[2]; read-out: IC50 of YopE-βLA secretion from Y. pestis strain JG153", "result": "~4.42"},
      {"measurement": "pIC50", "setting": "[2]; read-out: yopE-βLA IC50", "result": 4.66},
      {"measurement": "MIC", "setting": "P. aeruginosa", "result": "> 100", "unit": "µM"},
      {"measurement": "Serum Effect", "setting": "[3]; % inhibition of exoT-lux RLU in the absence of serum/% inhibition in the presence of 10% fetal calf serum, both at 50 μM compound", "result": 3.7},
      {"measurement": "z-score in the high throughput screen", "setting": "[3]; strain MDM852, RLU at 200 minutes", "result": 10},
      {"measurement": "time to 50% inhibition of ExoS′-βLA secretion", "setting": "[4]; [6]", "result": "≤ 15", "unit": "min"},
      {"measurement": "time to 100% inhibition of ExoS′-βLA secretion", "setting": "[4]; [6]", "result": "≤ 45", "unit": "min"},
      {"measurement": "pIC50", "setting": "[4]; Pseudomonas aeruginosa, read-out: ExoS′-βLA IC50, Table 3, secretion from P. aeruginosa strain MDM973 reduced by 50%", "result": 4.90},
      {"measurement": "IC50", "setting": "[4]; Pseudomonas aeruginosa, read-out: IC50 (μM) (ExoS′-βLA assay), Table 4", "result": 10, "unit": "µM"},
      {"measurement": "potency when administered during or after the 2.5 hour EGTA induction of T3SS", "setting": "[4]; unpublished observations", "result": "equally potently"},
      {"measurement": "reduction of growth of C. trachomatis L2 in Hep-2 cells", "setting": "[5]; 50 μM, MOI 0.5, listed as MBX 1641", "result": "significantly reduced; also recorded: inhibits the growth"},
      {"measurement": "concentration dependence of effect on C. trachomatis growth in Hep-2 cells", "setting": "[5]; FIG. 3D", "result": "concentration-dependent effect"}
    ]}
  ]
}
